Source: ChEMBL document CHEMBL1201862, “PubChem BioAssay data set” (2004)
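Method: 48-hour compound exposure of cells in 96-well plates, five concentrations, linear interpolation of endpoints. At the GI50, growth is halved.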 Calls of active or inactive are those of the source. No stated cut-off is given here; in the data, active = GI50 up to about 1.1 µM and inactive = higher.

Columns and labels:
Assay in all cases: NCI tumour cell line growth inhibition, 48 h
[1] = test system: CCRF-CEM
[2] = test system: SF-295
[3] = test system: LOX IMVI
[4] = test system: NCI-H226
[5] = test system: OVCAR-5
[6] = test system: UO-31
[7] = test system: SF-539
[8] = test system: HT-29
[9] = test system: A549
[10] = test system: SNB-19
[11] = test system: SK-MEL-2
[12] = test system: K562
[13] = test system: 786-0
[14] = test system: EKVX
[15] = test system: TK-10
[16] = test system: NCI-H460
[17] = test system: KM12
[18] = test system: RXF 393

| Compound | GI50 [1] | GI50 [2] | GI50 [3] | GI50 [4] | GI50 [5] | GI50 [6] | GI50 [7] | GI50 [8] | GI50 [9] | GI50 [10] | GI50 [11] | GI50 [12] | GI50 [13] | GI50 [14] | GI50 [15] | GI50 [16] | GI50 [17] | GI50 [18] |
| --- | --- | --- | --- | --- | --- | --- | --- | --- | --- | --- | --- | --- | --- | --- | --- | --- | --- | --- |
| CCCCC(C)/C=C/C(O)=C1\C(=O)O/C(=C\C(=O)O)C1=O (stereo not drawn) | > 100 µM (inactive) | > 100 µM (inactive) | > 100 µM (inactive) | > 100 µM (inactive) | > 100 µM (inactive) | > 100 µM (inactive) | > 100 µM (inactive) | > 100 µM (inactive) | > 100 µM (inactive) | > 100 µM (inactive) | > 100 µM (inactive) | > 100 µM (inactive) | > 100 µM (inactive) | > 100 µM (inactive) | > 100 µM (inactive) | > 100 µM (inactive) | > 100 µM (inactive) |  |
| CC(C)(O)[C@H](CCO)O[Si](c1ccccc1)(c1ccccc1)C(C)(C)C | 10.6 µM (inactive) | 6.35 µM (inactive) | 11.1 µM (inactive) |  | 14.9 µM (inactive) | 11 µM (inactive) | 14.3 µM (inactive) | 11.1 µM (inactive) | 7.35 µM (inactive) | 6.01 µM (inactive) | 15.1 µM (inactive) | 7.74 µM (inactive) |  | 14.2 µM (inactive) | 13.2 µM (inactive) | 11.2 µM (inactive) | 11.6 µM (inactive) |  |
| CC(C)(C)Sc1nnc(SC(C)(C)C)c2c(SC(C)(C)C)nnc(O)c12 | 7.5 µM (inactive) | 11.4 µM (inactive) | 11.7 µM (inactive) | 15.2 µM (inactive) | 4.61 µM (inactive) | 5.73 µM (inactive) | 10.6 µM (inactive) | 6.03 µM (inactive) | 4.59 µM (inactive) | 11.6 µM (inactive) |  | 4.74 µM (inactive) | 10.1 µM (inactive) | 12.1 µM (inactive) | 23.2 µM (inactive) | 6.25 µM (inactive) | 12.9 µM (inactive) | 3.39 µM (inactive) |
| Nc1nc(N)c2ncn(CC(CO)CC(c3ccccc3)P(=O)(O)O)c2n1 (stereo not drawn) | > 100 µM (inactive) | > 100 µM (inactive) | > 100 µM (inactive) | > 100 µM (inactive) | > 100 µM (inactive) | > 100 µM (inactive) | > 100 µM (inactive) | > 100 µM (inactive) | > 100 µM (inactive) | > 100 µM (inactive) | > 100 µM (inactive) | > 100 µM (inactive) |  |  | > 100 µM (inactive) | > 100 µM (inactive) | > 100 µM (inactive) | > 100 µM (inactive) |
| COc1ccc(C2C=C(c3ccc(C)cc3)N(c3ccc(OC)cc3[N+](=O)[O-])C3C(=O)OC(=O)C23)c(OC)c1 (stereo not drawn) | 35.1 µM (inactive) | 43.9 µM (inactive) | 25.5 µM (inactive) | 31.5 µM (inactive) | 48.3 µM (inactive) |  | 24.4 µM (inactive) | 24.3 µM (inactive) | 37 µM (inactive) | 47 µM (inactive) | 24 µM (inactive) | 37.8 µM (inactive) | 30.8 µM (inactive) | 28.2 µM (inactive) | 47.5 µM (inactive) | 71.3 µM (inactive) | 7.8 µM (inactive) |  |
| C=C1C(=O)O[C@@H]2OC3(C)CCC4C(C)CCC1C42OO3 (stereo partly drawn) | 1.47 µM (inactive) | 3.85 µM (inactive) | 2.36 µM (inactive) | 11.5 µM (inactive) | 15.7 µM (inactive) | 9.84 µM (inactive) | 2.48 µM (inactive) | 2.67 µM (inactive) | 4.99 µM (inactive) | 14.7 µM (inactive) | 2.18 µM (inactive) | 2.07 µM (inactive) |  | 11.4 µM (inactive) |  | 2.38 µM (inactive) | 3.38 µM (inactive) |  |
| COc1ccc(C2COc3c(ccc(O)c3C)C2)cc1OC (stereo not drawn) | 40.7 µM (inactive) | 58.9 µM (inactive) | 12.9 µM (inactive) | 57.5 µM (inactive) | 119 µM (inactive) | 66.1 µM (inactive) | 106 µM (inactive) | 65.8 µM (inactive) | 60.8 µM (inactive) | 143 µM (inactive) | 69.7 µM (inactive) | 59.6 µM (inactive) |  | 136 µM (inactive) |  | 62.7 µM (inactive) | 102 µM (inactive) | 24 µM (inactive) |
| OC1CCC[C@@H]1Sc1ccccc1 (stereo partly drawn) | > 100 µM (inactive) | > 100 µM (inactive) | > 100 µM (inactive) |  |  | > 100 µM (inactive) | > 100 µM (inactive) |  | > 100 µM (inactive) | > 100 µM (inactive) | > 100 µM (inactive) | > 100 µM (inactive) | > 100 µM (inactive) | > 100 µM (inactive) | > 100 µM (inactive) | > 100 µM (inactive) | > 100 µM (inactive) | > 100 µM (inactive) |
| CN(C)CCNC(=O)c1cccc2ccc(-c3ccc(Br)cc3)nc12 | 1.09 µM (active) | 3.76 µM (inactive) | 1.64 µM (inactive) | 1.89 µM (inactive) | 2.96 µM (inactive) | 1.76 µM (inactive) | 3.13 µM (inactive) | 1.61 µM (inactive) | 1.09 µM (active) | 4.14 µM (inactive) | 3.09 µM (inactive) | 1.7 µM (inactive) |  | 2.61 µM (inactive) |  | 0.767 µM (active) | 3.45 µM (inactive) | 3.96 µM (inactive) |
